# From paper PMC4685510, “A Cell Biologist’s Field Guide to Aurora Kinase Inhibitors” (Frontiers in Oncology, 2015)
# “Also recorded” adds a separate entry of the source. Where two headings read alike, the source gives them in different places.
# Tests used:
# [1] = system: HeLa cells; assay: G2 duration live imaging assay (GFP-PCNA; H2B-RFP), HeLa; assay type: cell-based, human; settings: Homo sapiens, read-out: G2/M (G2 duration) IC50
# [2] = system: pH3(Ser 28) in HeLa cells; assay: Substrate phosphorylation immunofluorescence assay, pH3(Ser 28), HeLa; assay type: cell-based, human; settings: for IC50: Homo sapiens, 8 h, read-out: pHistone H3 (Ser28) IC50
# [3] = system: pLATS2(Ser 83) in U2OS cells; assay: Substrate phosphorylation immunofluorescence assay, pLATS2(Ser 83), U2OS; assay type: cell-based, human; settings: 8 h inhibitor treatment; for IC50: Homo sapiens, read-out: pLATS2 (Ser83) IC50
# Experimental: (§1) We employed the protocol described in Figure 3D to analyze substrate phosphorylation in HeLa cells following treatment with all 10 inhibitors in dose–response. Asynchronous cells were incubated with vehicle (DMSO) or different inhibitor doses for 8 h and then fixed and labeled with a mixture of three antibodies directed against pLATS2(Ser 83), pH3(Ser 28), and MPM2 [which detects mitotic phosphoepitopes; ([86])]. While both the anti-pLATS2(Ser 83) and MPM2 antibodies are mouse monoclonals, they are of different IgG subclasses [IgG2b for anti-pLATS2(Ser 83) and IgG1 for MPM2], and can thus be detected with subclass-specific secondary antibodies (Table S3 in Supplementary Material).
# (§2) In control mitotic cells, pLATS2(Ser 83) is concentrated in foci around the spindle poles (Figure 3E; top row – green arrow) and pH3(Ser 28) is on the mitotic chromatin (Figure 3E; top row – red arrow). Selective kinase inhibition should result in loss of one signal but not the other, as illustrated by the example images for specific conditions in Figure 3E (middle and bottom rows). Cells were imaged in 4 channels to visualize pLATS2(Ser 83), pH3(Ser 28), MPM2, and DNA (labeled with Hoechst) and mitotic cells were segmented based on their bright MPM2 labeling (Figure 3E). Intensity and area thresholds were set to select the pLATS2(Ser 83) foci and the pH3(Ser 28)-labeled chromatin in their respective channels in DMSO-treated control cells and the same thresholds were applied for inhibitor-treated cells. The mean fluorescence intensity per pixel was measured to assess the activities of the kinases targeting these two substrate phosphorylation sites.
# (§3) Twelve thousand HeLa cells, 10,000 U2OS cells, or 8,000 RPE1 cells were seeded into 96-well glass-bottom Sensoplates (Greiner) 16 h before inhibitor addition. Prior to seeding, the glass-bottom plates were coated with poly-L-lysine (Sigma). […] After 8 h cells were fixed with 4% PFA for 20 min at room temperature. The fixed cells were washed with PBS. For immunostaining, cells were permeabilized and blocked with PBS containing 10% normal donkey serum (Jackson ImmunoResearch) and 0.1% Triton-X100 for 1 h at room temperature. Primary antibodies against phospho-LATS2 (Ser 83), phospho-histone H3(Ser 28), and anti-phospho-MPM2 (see Table S3 in Supplementary Material) were incubated for 1 h at room temperature. […] Cells were then washed twice with PBS containing 0.1% Triton-X100. Image acquisition in four channels was performed using a CV7000 spinning disk confocal system (Yokogawa Electric Corporation) with a 40 × 0.95 NA U-PlanApo objective and 2560 × 2160 pixel sCMOS camera. […] Fifty fields per well were imaged with quadruplicate wells for each condition. Image analysis was done using the CV7000 image analysis software (Yokogawa Electric Corporation). Between 100 and 1,000 mitotic cells per condition were segmented applying object identification parameters to select for bright MPM2 labeling. Using a nuclear identifier protocol, minimum intensity thresholds were set for pLATS2(Ser 83) and the pH3(Ser 28) signals, and the resulting identified objects were eroded, dilated, and filtered for size by user-defined thresholds. For only the MPM2-positive mitotic cells, the mean fluorescence intensity of the identified pLATS2(Ser 83) and pH3(Ser 28) objects was measured, and the average intensity per cell per well was calculated. The same thresholds were applied for all of the inhibitor-treated samples, which were processed, imaged, and analyzed in parallel with control DMSO-treated cells. Data were fit using a four-parameter, variable slope fit in Prism (GraphPad). Primary and secondary antibody dilutions can be found in Table S3 in Supplementary Material.
# [4] = system: pH3(Ser 28) in U2OS cells; assay: Substrate phosphorylation immunofluorescence assay, pH3(Ser 28), U2OS; assay type: cell-based, human; settings: Homo sapiens, read-out: pHistone H3 (Ser28) IC50
# [5] = system: pH3(Ser 28) in RPE1 cells; assay: Substrate phosphorylation immunofluorescence assay, pH3(Ser 28), RPE1; assay type: cell-based, human; settings: Homo sapiens, read-out: pHistone H3 (Ser28) IC50
# [6] = system: U2OS cells; assay: G2 duration live imaging assay (GFP-PCNA; H2B-RFP), U2OS; assay type: cell-based; settings: Homo sapiens, read-out: G2/M (G2 duration) IC50
# [7] = system: RPE1 cells; assay: G2 duration live imaging assay (GFP-PCNA; H2B-RFP), RPE1; assay type: cell-based; settings: Homo sapiens, RPE-1; RPE1; read-out: G2/M (G2 duration) IC50
# [8] = system: pLATS2(Ser 83) in RPE1 cells; assay: Substrate phosphorylation immunofluorescence assay, pLATS2(Ser 83), RPE1; assay type: cell-based, human; settings: RPE1, 8 h inhibitor treatment; for IC50: Homo sapiens, RPE-1, read-out: pLATS2 (Ser83) IC50
# Experimental: as §1, §2, §3
# [9] = system: pLATS2(Ser 83) in HeLa cells; assay: Substrate phosphorylation immunofluorescence assay, pLATS2(Ser 83), HeLa; assay type: cell-based, human; settings: HeLa; for IC50: Homo sapiens, 8 h, read-out: pLATS2 (Ser83) IC50; for IC50 / pLATS2 (Ser83) IC50: 8 h inhibitor treatment
# Experimental: as §1, §2, §3
# [10] = system: Aurora A; settings: read-out: Aurora A IC50 (Published), cited from earlier work
# [11] = biological target: Aurora A-TPX2; settings: cited from earlier work; for IC50: ref 121, read-out: Aurora A-TPX2 IC50 (Published)
# [12] = system: HeLa cells; assay: Cytokinesis assay (live imaging, YFP-α-tubulin; H2B-RFP), HeLa; assay type: cell-based, human; settings: for IC50: Homo sapiens, HeLa, read-out: Cytokinesis IC50
# [13] = system: RPE1 cells; assay: Cytokinesis assay (live imaging, YFP-α-tubulin; H2B-RFP), RPE1; assay type: cell-based; settings: Homo sapiens
# [14] = biological target: T1, Aurora B/INCENP^783–918 (Homo sapiens, UniProt Q96GD4); assay: Aurora B/INCENP^783–918 kinase assay (ADP-Glo); assay type: biochemical
# T1 construct: purchased SignalChem
# [15] = biological target: T2, full-length human Aurora A (Homo sapiens, UniProt O14965); assay: Aurora A kinase assay (ADP-Glo, Kemptide substrate); settings: Aurora A Ki Mean ± SD, [ATP] = Km(ATP) (35 μM); Ki calculated from IC50 with tight-binding equation
# T2 sequence (O14965 1-403): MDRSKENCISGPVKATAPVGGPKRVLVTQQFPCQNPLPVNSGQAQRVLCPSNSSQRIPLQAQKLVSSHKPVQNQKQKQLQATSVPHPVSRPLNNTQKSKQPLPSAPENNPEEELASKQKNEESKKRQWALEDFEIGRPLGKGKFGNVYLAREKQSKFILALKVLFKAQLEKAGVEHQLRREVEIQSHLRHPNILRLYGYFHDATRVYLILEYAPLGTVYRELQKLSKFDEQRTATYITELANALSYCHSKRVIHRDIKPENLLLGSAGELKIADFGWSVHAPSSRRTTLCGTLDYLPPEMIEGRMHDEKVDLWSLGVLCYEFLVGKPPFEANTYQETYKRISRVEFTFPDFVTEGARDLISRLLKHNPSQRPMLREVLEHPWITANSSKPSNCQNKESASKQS
# [16] = system: U2OS cells; assay: Cytokinesis assay (live imaging, YFP-α-tubulin; H2B-RFP), U2OS; assay type: cell-based; settings: Homo sapiens, read-out: Cytokinesis IC50
# [17] = biological target: T3, Aurora A/TPX2^1–43 (Homo sapiens, UniProt O14965); assay: Aurora A/TPX2^1–43 kinase assay (ADP-Glo); settings: Aurora A-TPX2^1–43 Ki Mean ± SD, [ATP] = Km(ATP) (3 μM); 40 nM TPX2^1–43
# T3 sequence (O14965 1-403): T2 sequence (O14965 1-403)
# T3 sequence (Q9ULW0 1-43 partner limits assumed): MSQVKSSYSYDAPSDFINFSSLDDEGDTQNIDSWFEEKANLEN
# [18] = system: Aurora B; settings: read-out: Aurora B IC50 (Published), cited from earlier work
# [19] = system: 363 human kinases (including Aurora A/B/C); assay: biochemical; assay type: biochemical
# [20] = biological target: 363 human kinases (including Aurora A/B/C) (Homo sapiens, UniProt Q16539); assay: biochemical; assay type: biochemical; settings: read-out: % Enzyme Activity (relative to DMSO controls)
# [21] = system: HeLa, RPE1, and U2OS cells; assay: Cellular proliferation analysis (ATPLite, 24 h); settings: HeLa, RPE1, U2OS; 24 h (Figure 4D, Figure S2B)
# [22] = system: pAuroraA(Thr 288) in HeLa cells; assay: Immunoblotting of Aurora A activation loop phosphorylation; assay type: cell-based, human; settings: immunoblot
# [23] = system: pAuroraB(Thr 232), pH3(Ser 10), pH3(Ser 28) in HeLa cells; assay: Immunoblotting of pAuroraB(Thr 232), pH3(Ser 28) and pH3(Ser 10); assay type: cell-based, human; settings: immunoblot, dose–response
# [24] = RPE-1, RPE1, 8 h inhibitor treatment
# [25] = RPE-1, RPE1, cytokinesis failure, read-out: Cytokinesis IC50
# [26] = fold difference in potency calculated by dividing Ki values, for GSK1070916 the Aurora B Ki of ref 61 was used
# T1 sequence (Q96GD4 whole entry): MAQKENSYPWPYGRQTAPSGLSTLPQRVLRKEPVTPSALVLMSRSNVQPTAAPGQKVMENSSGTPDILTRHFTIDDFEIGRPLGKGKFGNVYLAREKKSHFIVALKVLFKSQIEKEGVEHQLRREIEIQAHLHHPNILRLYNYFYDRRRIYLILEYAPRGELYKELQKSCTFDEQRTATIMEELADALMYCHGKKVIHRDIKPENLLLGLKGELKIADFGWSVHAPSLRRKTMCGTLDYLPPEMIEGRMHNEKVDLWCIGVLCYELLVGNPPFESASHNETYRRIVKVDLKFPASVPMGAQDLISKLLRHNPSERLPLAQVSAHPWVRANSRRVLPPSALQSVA
# T1 sequence (Q9NQS7 783-918 partner limits assumed): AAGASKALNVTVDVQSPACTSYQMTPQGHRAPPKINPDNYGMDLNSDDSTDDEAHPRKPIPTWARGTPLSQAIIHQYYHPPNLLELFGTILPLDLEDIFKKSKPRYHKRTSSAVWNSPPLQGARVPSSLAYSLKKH
# Chain of 363 human kinases (including Aurora A/B/C) (Homo sapiens, UniProt Q16539) (Q16539 whole entry): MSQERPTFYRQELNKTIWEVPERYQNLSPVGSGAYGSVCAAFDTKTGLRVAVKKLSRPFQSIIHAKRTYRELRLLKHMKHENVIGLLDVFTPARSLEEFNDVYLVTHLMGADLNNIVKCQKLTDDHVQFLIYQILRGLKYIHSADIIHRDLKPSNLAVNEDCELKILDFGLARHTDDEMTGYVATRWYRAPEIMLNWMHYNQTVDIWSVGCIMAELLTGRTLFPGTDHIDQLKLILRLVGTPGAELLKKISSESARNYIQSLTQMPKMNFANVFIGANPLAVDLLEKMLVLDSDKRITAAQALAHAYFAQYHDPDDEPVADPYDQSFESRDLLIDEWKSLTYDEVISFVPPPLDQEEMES
IC50 ([12]; cytokinesis failure) [nM],IC50 ([16]; cytokinesis failure) [nM],pLATS2 (Ser83) IC50 [9],Structure (SMILES),IC50 [1] [nM],IC50 ([2]; 8 h inhibitor treatment) [nM],IC50 [3] [nM],IC50 ([4]; 8 h inhibitor treatment) [nM],"IC50 [5, 24] [nM]",IC50 [6] [nM],IC50 [7] [nM],IC50 [8] [nM],Specificity window (pLATS2(Ser 83) versus pH3(Ser 28)) [9] [fold],IC50 [9] [nM],Concentration completely eliminating pH3(Ser 28) labeling without affecting pLATS2(Ser 83) labeling [2] [nM],"IC50 [13, 25] [nM]",IC50 [11] [nM],further results
–,–,–,COc1cc(Nc2ncc3c(n2)-c2ccc(Cl)cc2C(c2c(F)cccc2OC)=NC3)ccc1C(=O)O [MLN8237],128,160,92,210,130,157,115,130,4,37,–,–,–,–
–,–,–,O=C(O)c1ccc(Nc2ncc3c(n2)-c2ccc(Cl)cc2C(c2c(F)cccc2F)=NC3)cc1 [MLN8054],736,2900,800,3300,880,957,500,720,[…],290,–,–,–,"IC50 ([10]; ref 48): […]; IC50 ([10]; ref 59): […]; Ki ([11]; ref 71, read-out: Aurora A-TPX2 Ki (Published)): 3.3 nM"
–,–,–,Cc1cc(Nc2cc(N3CCN(C)CC3)nc(Sc3ccc(NC(=O)C4CC4)cc3)n2)[nH]n1 [VX-680],–,45,–,–,–,–,–,–,–,150,–,–,–,IC50 ([10]; ref 119): […]
14,17,NE (100 nM); also recorded: NE@100 nM,CCS(=O)(=O)Nc1ccc2c(c1)/C(=C(/Nc1ccc(CN3CCCCC3)cc1)c1ccccc1)C(=O)N2 [Hesperadin],–,14,–,–,–,–,–,–,–,–,< 100,47,11,"Stability under long-term live imaging conditions ([12]; ability to block cytokesis over time in live imaging, cell line not specified): appeared to be unstable under live imaging conditions; also recorded: appears to be unstable under long-term live imaging conditions; Ki ([14]; Aurora B-INCENP^783–918 Ki Mean ± SD, [ATP] = Km(ATP) (10 μM)): 0.03 ± 0.014 nM; Selectivity ratio Aur B-INCENP^783–918 versus Aur A [14, 26]: 40.2 fold; Selectivity ratio Aur B-INCENP^783–918 versus Aur A-TPX2^1–43 [14, 26]: 45.3 fold; Ki [15]: 1.21 ± 0.14 nM; Ki [17]: 1.37 ± 0.12 nM; IC50 ([18]; ref 45): 250 nM; IC50 ([18]; ref 121): 3 nM"
615,613,NE (3 μM); also recorded: NE@3 μM,COc1cc2c(Nc3ccc(NC(=O)c4ccccc4)cc3)ncnc2cc1OCCCN1CCOCC1 [ZM447439],–,410,–,–,–,–,–,–,–,–,–,1320,360,–

Structure (SMILES),IC50 ([12]; cytokinesis failure) [nM],IC50 ([16]; cytokinesis failure) [nM],pLATS2 (Ser83) IC50 [9],IC50 [1] [nM],IC50 ([2]; 8 h inhibitor treatment) [nM],IC50 [3] [nM],IC50 ([4]; 8 h inhibitor treatment) [nM],"IC50 [5, 24] [nM]",IC50 [6] [nM],IC50 [7] [nM],IC50 [8] [nM],Specificity window (pLATS2(Ser 83) versus pH3(Ser 28)) [9] [fold],IC50 [9] [nM],Concentration completely eliminating pH3(Ser 28) labeling without affecting pLATS2(Ser 83) labeling [2] [nM],"IC50 [13, 25] [nM]",IC50 [11] [nM],further results
CCN(CCO)CCCOc1ccc2c(Nc3cc(CC(=O)Nc4cccc(F)c4)[nH]n3)ncnc2c1 [AZD1152-HQPA],–,–,NE (100 nM); also recorded: NE@100 nM,–,–,–,–,–,–,–,–,–,–,< 100,–,–,"IC50 [2]: 5 nM; IC50 [12]: 4 nM; IC50 ([13]; RPE-1, read-out: Cytokinesis IC50): 23 nM; pLATS2 (Ser83) IC50 [3]: NE@200 nM; Kinases inhibited ≥65% of control [19]: Aurora B was the only enzyme; remaining activity at 0.1 µM [20]: 104%; Toxicity / cytotoxicity (cellular proliferation) [21]: not observed; IC50 ([4]; 8 h): 12 nM; IC50 ([5]; RPE-1, 8 h): 25 nM; IC50 [16]: 20 nM; pLATS2 (Ser83) IC50 [8]: NE@200 nM; Effect on Aurora A activity (pAuroraA Thr 288) ([22]; 300 nM (Figure S6)): did not; Effect on pAuroraA(Thr 288) ([22]; dose–response): did not affect; Effect on pH3(Ser 10), pH3(Ser 28), pAuroraB(Thr 232) [23]: eliminated"
